Reference: patent publication US9616056B2, “Inhibition of leukotriene synthesis and activity in the treatment of sonic hedgehog-associated medulloblastoma” (Institute for Cancer Research, priority 2013, dated 2017)
“Also recorded” adds a separate entry of the source.

Key:
[1] = test system: tumor cells isolated from Math1-Cre/Ptch1^C/C animals (MB cells); assay: Nestin expression in cultured medulloblastoma tumor cells (immunostaining); format: cell-based, mouse
Method: (§1) GNPs isolated from Ptch1^C/C animals were plated and infected with lentivirus carrying Cre recombinase to delete Ptch1. At 48 hrs following the infection, GNPs were stained for Cre (green) and Nestin (red) in control (Panel A) and in the presence of 20 ng/ml leukotriene (Panel B). MB cells were plated in vitro for 48 hrs, and stained for Nestin (red) in control (Panel C) and in the presence of 5 μM MK886. (Panel D).
Tumor cells isolated from Math1-Cre/Ptch1^C/C animals, were treated with 3 μM DMSO (Panels A and B) or MK886 (Panels C and D) in vitro. After 48 hrs treatment, tumor cells were harvested for immunostaining with antibodies against Nestin (red) and Ki67 (green) (Panels B and D). The same cultures were counterstained by DAPI (blue) to show the total cell number (Panels A and B).
To further examine whether Leukotriene synthesis is required for Nestin expression in tumor cells, tumor cells were isolated from the mouse model, which has already highly expresses Nestin in vivo, even in the culture at 48 hrs following plating.
It was next investigated whether leukotriene inhibition can prevent tumor cell proliferation. […] At 48 hrs after treatment, tumor cells were analyzed for proliferation by immunostaining for Ki67. […]

[2] = test system: tumor cells isolated from Math1-Cre/Ptch1^C/C animals (MB cells); assay: Tumor cell proliferation in vitro by Ki67 immunostaining; format: cell-based, mouse; settings: 48 hrs treatment, 3 μM, vs DMSO (FIG. 5)
Method: 48 hrs later, the percentage of proliferating cells was calculated after immunostaining the culture with antibody against Ki67.
Tumor cells isolated from the mouse model were treated with MK886 or DMSO as a control. At 48 hrs after treatment, tumor cells were analyzed for proliferation by immunostaining for Ki67.
DMSO was used as a negative control.

[3] = test system: medulloblastoma in Math1-Cre/Ptch1^C/C animals; assay: In vivo tumor growth in tumor bearing Math1-Cre/Ptch1^C/C animals; parameters: species or system mouse
Method: Tumor bearing animals were treated with MK886 or DMSO by IP injection. After 1 month treatment, tumors were harvested. Tumor size was reduced by 30% with the treatment of MK886 (Panel A). After the treatment, tumors were sectioned for immunostaining for Nestin (Panels B and D), and Ki67 (Panels C and E). In the control (Panels B and C), tumor cells extensively express Nestin (Panel B) and all the tumor cells were Ki67 positive (Panel C).
Next, the efficacy of MK886 in inhibiting in vivo tumor growth was evaluated. Math1-Cre/Ptch1^C/C animals at postnatal day 21 were treated daily with 30 μg MK886 by intraperitoneal injection. Three weeks later, tumor volume was evaluated by MRI imaging.
Nestin expression and Ki67 was compared in tumor sections by immunohistochemical analysis.

[4] = test system: GBM cell lines T98G, U-87MG and U251; assay: GBM cell viability by Alamar blue assay; format: cell-based; settings: various concentrations, 48 hrs (FIG. 8)
Method: Three GBM cell lines (T98G, U87-MG and U251) were plated and treated with MK886 and Montelukast at various concentrations for 48 hrs. Cell viability was measured by Alamar blue assay. Data represent the average of triplicate+SD. *p<0.05
To test the efficacy of leukotriene inhibitors in preventing glioblastoma cell proliferation, three GBM cell lines: T98G, U-87MG and U251 (purchased from an in-house cell culture facility) were utilized. The cell lines were treated with MK886 and Montelukast at different concentrations. After treatment for 48 hrs, cell survival and growth was analyzed by Alamar blue assay (Al-Nasiry, S et al. (2007) Hum. Reprod. 22:1304-9).

Ptch1-deficient GNPs = assay: Induction of Nestin expression in Ptch1-deficient GNPs (immunocytochemistry); format: cell-based, mouse; settings: 20 ng/ml leukotriene, 48 hrs after Cre lentivirus infection
Method: as §1
Since Nestin is a cytoskeleton protein, it was examined whether leukotriene could induce Nestin expression in medulloblastoma cells. For this purpose, cerebellar GNPs were isolated from Ptch1^C/C animals, and Patched1 (Ptch1) was deleted from GNPs by using a lentivirus with Cre recombinase. At 48 hrs following the infection, cells were harvested to analyze Nestin expression by immunocytochemistry. […] The presence of Nestin mRNA and protein has been confirmed by RT-PCR and western blotting (data not shown).

| Molecule | Nestin expression in tumor cells ([1]; 48 hrs treatment, 3 μM, vs DMSO (FIG. 5)) | Nestin expression among tumor cells ([1]; MB cells plated in vitro 48 hrs, 5 μM MK886 (FIG. 4)) | proliferation among tumor cells (Ki67) [2] | decrease of tumor size in volume (MRI imaging) ([3]; 30 μg MK886 daily intraperitoneal from postnatal day 21, three weeks, vs DMSO) | tumor size reduction ([3]; IP injection, after 1 month treatment, tumors harvested (FIG. 7 Panel A)) | Nestin expression in tumor sections after treatment ([3]; immunostaining of tumor sections after MK886 treatment vs DMSO) | number of Ki67 positive cells in tumor ([3]; tumor sections after MK886 treatment compared with control) | tumor cells still positive for Ki67 ([3]; tumor sections after MK886 treatment, control all cells Ki67 positive (FIG. 7 Panel E)) | viability of GBM cells [4] | Nestin protein among Ptch1-deficient GNPs (Ptch1-deficient GNPs) |
| --- | --- | --- | --- | --- | --- | --- | --- | --- | --- | --- |
| CC(C)c1ccc2c(c1)c(SC(C)(C)C)c(CC(C)(C)C(=O)[O-])n2Cc1ccc(Cl)cc1.[Na+] [MK886, 1-[(4-Chlorophenyl)methyl]-3-[(1,1-dimethylethyl)thio]-α,α-dimethyl-5-(1-methylethyl)-1H-Indole-2-propanoic acid] | markedly inhibited | dramatically inhibited | prevented the proliferation | over 30% | 30% | dramatically reduced; also recorded: almost no Nestin is present | decreased dramatically | around 30% | effectively reduce the viability | – |
| CC(C)(O)c1ccccc1CC[C@@H](SCC1(CC(=O)O)CC1)c1cccc(/C=C/c2ccc3ccc(Cl)cc3n2)c1 [Montelukast, (R,E)-2-(1-((1-(3-(2-(7-chloroquinolin-2-yl)vinyl)phenyl)-3-(2-(2-hydroxypropan-2-yl)phenyl)propylthio)methyl)cyclopropyl)acetic acid] | – | – | – | – | – | – | – | – | effectively reduce the viability | – |
| leukotriene | – | – | – | – | – | – | – | – | – | high level of Nestin protein was detected |
